Assay [1] has as its system IL-6. Description: LPS-induced IL-6 secretion in primary human monocyte-derived macrophages (ELISA). In kind it is cell-based. The arrangement: Donor 1 IL-6 Measurements Mean: unit not given here. The following applies: for Donor 1 IL-6 Measurements Mean / Donor 2 IL-6 Measurements Mean / Donor 3 IL-6 Measurements Mean: LPS, baseline subtracted; for effect on LPS-induced IL-6 secretion: Two Way ANOVA Dunnett. As for the experimental part: Primary human PMBC derived macrophages were seeded on day 0 at 3.0×10^4 cells per well in 96-well microplates (ThermoFisher) in Dulbecco's Modified Eagle Medium (DMEM) (Gibco) supplemented with penicillin-streptomycin (Hyclone) and 10% heat inactivated fetal bovine serum (HI-FBS) (Atlanta Bio) and incubated overnight at 37° C., 5% CO2. On day 1, cells were washed once with 150 μl per well DPBS (Gibco) and treated with 75 μl of: • a. […] The same medium described above with one amino acid at various concentrations including complete dropout. […] On day 3, the supernatant was collected and immediately frozen in −80° C. freezer. Cells were washed once with 150 μl DPBS and viability was assessed using the WST-8 Cell Proliferation Cytotoxicity Assay (Dojindo). […] Protein levels in supernatant samples were analyzed by ELISA for IL-6 and TNFα using commercially available kits (R&D Systems) according to manufacturer-supplied protocols.

Assay [2] has as its system RBCs of healthy whole blood. As to the kind of experiment: RBC deformability (Elongation Index, LORRCA ektacytometry), ex vivo TBHP oxidation of healthy whole blood. In kind it is cell-based, human. The conditions noted are these: for EI over vehicle control, both ½ EImax and EImax: healthy donor 2, single amino acid treatments. The text has this: Whole blood from healthy African American and/or Hispanic donors was obtained from Research Blood Components, LLC based on the following donor selection criteria: Adult age (between 18 and 50 years), normal BMI (<30), and absence of other confounding clinical conditions. Whole blood from SCD donors were obtained from BioIVT based on the following donor selection criteria: Patients with genotypes HbSS, HbSC, HbS/β^0 and at least 1-2 months gap since last blood transfusion. Whole blood was shipped on ice on the same day as blood draw. Upon receipt, the blood sample was aliquoted and stored in the refrigerator until used for studies.
RBC deformability measurements were conducted with the Laser Optical Rotational Red Cell Analyzer (LORRCA) from RR Mechatronics in a temperature-controlled environment (37° C.). Briefly, an even layer of RBCs suspended in polyvinylpyrrolidone (PVP) is subjected to shear stress gradient (0.3 to 30 Pa) through two concentric cylinders and the resulting changes in RBC shape or deformability are measured by a laser beam diffraction pattern. The captured images of RBC shape in response to increasing shear stress are then analyzed by the LORRCA program to calculate Elongation Index (EI).
Healthy RBCs have higher deformability ≥0.5 EI and SCD RBCs have lower deformability or EI values as studied by LORRCA ektacytometry in the field. […] The induced hemolysis model in this disclosure involves use of tert-butyl hydroperoxide (TBHP) to lower EI of RBCs.
The ex vivo hemolysis study disclosed here involves overnight treatment of whole blood with vehicle as a control and specific amino acids followed by rapid oxidation (5 min) with TBHP. Method for oxidation of whole blood with tert-butyl hydroperoxide has been used in prior literature (Diederich L, et al, Front Physiol. 2018 May 11; 9:332). RBC deformability or shape changes are then measured with LORRCA ektacytometry.
Whole blood aliquots stored in the fridge were brought up to room temperature while gently shaking on a rocker at low speed for an hour to ensure gradual and uniform suspension of red blood cells prior to deformability measurements. Vehicle control used in the study was 1× Dulbecco's […]) and amino acids disclosed herein were added (at either final 10× or 2.5 mM concentration as indicated) to corresponding vehicle and amino acid treatment conditions. The samples were then incubated overnight at 37° C. The next day, 25 μl of whole blood was taken from each treatment condition and added to 5 mL Elon ISO viscous solution from RR Mechatronics. The sample was inverted 15-20 times to ensure proper mixing of the treated RBCs with the Elon ISO solution followed by loading the sample on LORRCA and capturing RBC deformability or shape measurements over the applied shear gradient. The remaining whole blood treatments were returned to incubator (37° C.) until deformability measurements were completed for all treatments. To the remaining whole blood treatment samples, TBHP solution (5.0-6.0 M in Decane, Sigma) was added at 2.5 mM final concentration from a 100 mM freshly prepared stock and incubated for further 5 min at 37° C. 25 μl of this TBHP-treated sample was immediately removed at the end of the 5 min incubation and added to the Elon ISO solution for RBC deformability measurement after oxidation. Included in the Tables 13-15 are EI measurements at ½ EImax shear stress 1.69 Pa and EImax shear stress 30 Pa from these studies and FIG. 1 captures EI measurements for all shear stress points for the indicated treatment conditions.

The test system of assay [3] is IL-6. Description: Secreted IL-6 in HLMVEC treated with TNF-α (FirePlex). In kind it is cell-based, human. The gist of the method: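 Primary human lung microvascular endothelial cells, after overnight attachment, were switched to medium with amino acid levels mimicking SCD patient blood, plus 0.5 ng/mL TNF-α with or without amino acid treatments at 20× mean physiological plasma concentrations. Supernatant IL-6 measured by FirePlex immunoassay, interpolated from a standard curve.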

Consider `NC(=O)CC[C@H](N)C(=O)O` [Glutamine, L-glutamine], for which the “Donor 1 IL-6 Measurements Mean” value came to 0 in the assay with IL-6 [1] (Donor 1, Conc. 749 μM (baseline)); 291.5443 in the assay on IL-6 [1] (Donor 1, Conc. 3747 μM); 397.1745 in the assay with IL-6 [1] (Donor 1, Conc. 11242 μM); 440.1437 with IL-6 [1] (Donor 1, Conc. 22484 μM). In addition, the “effect on LPS-induced IL-6 secretion” value was “increased” in the assay on IL-6 [1] (Donor 1), “increased” with IL-6 [1] (Donor 2) and “significantly increased” in the assay on IL-6 [1] (Donor 3). Besides, the “Donor 2 IL-6 Measurements Mean” value with IL-6 [1] (Donor 2, Conc. 749 μM (baseline)) came out at 2.37E−15; in the assay on IL-6 [1] (Donor 2, Conc. 3747 μM), 22.52; with IL-6 [1] (Donor 2, Conc. 11242 μM), 63.31; in the assay on IL-6 [1] (Donor 2, Conc. 22484 μM), 34.39. The “Donor 3 IL-6 Measurements Mean” value is listed as 3.79E−14 in the assay on IL-6 [1] (Donor 3, Conc. 749 μM (baseline)); 25.35 in the assay on IL-6 [1] (Donor 3, Conc. 3747 μM); 98.4903 in the assay with IL-6 [1] (Donor 3, Conc. 11242 μM); 108.5158 in the assay on IL-6 [1] (Donor 3, Conc. 22484 μM). The “effectiveness among all treatment groups, EI and fold change relative to vehicle” value in assay [2] (healthy donor 2) was “least effective”. The “EI over vehicle control, both ½ EImax and EImax” value in assay [2] is “higher than the vehicle”. For the same compound, the “IL-6 secretion from TNFα treated HLMVEC” value in the assay on IL-6 [3] (0.5 ng/mL TNF-α, amino acids at 20× HMDB, 24 hours) is “increased”.

With `CC(=O)N[C@@H](CS)C(=O)O` [N-Acetyl Cysteine, N-acetylcysteine], the “Donor 1 IL-6 Measurements Mean” value in the assay on IL-6 [1] (Donor 1, Conc. 0 X (baseline)) is reported as 0; with IL-6 [1] (Donor 1, Conc. 5 X), 308.1772; in the assay on IL-6 [1] (Donor 1, Conc. 10 X) it was −121.142; in the assay with IL-6 [1] (Donor 1, Conc. 20 X) it was −553.802; in the assay with IL-6 [1] (Donor 1, Conc. 40 X) it was −914.194. The “effect on LPS-induced IL-6 secretion” value in the assay on IL-6 [1] (Donor 1), in the assay with IL-6 [1] (Donor 2) and in the assay with IL-6 [1] (Donor 3) was “significantly reduced” throughout. The “Donor 2 IL-6 Measurements Mean” value is −2.4E−15 with IL-6 [1] (Donor 2, Conc. 0 X (baseline)); −0.7946 with IL-6 [1] (Donor 2, Conc. 5 X); −9.751 in the assay with IL-6 [1] (Donor 2, Conc. 10 X); −24.9999 in the assay with IL-6 [1] (Donor 2, Conc. 20 X); −33.7585 in the assay on IL-6 [1] (Donor 2, Conc. 40 X). For the same compound, the “Donor 3 IL-6 Measurements Mean” value is −9.5E−15 in the assay with IL-6 [1] (Donor 3, Conc. 0 X (baseline)); −70.3269 in the assay with IL-6 [1] (Donor 3, Conc. 5 X); −103.586 in the assay with IL-6 [1] (Donor 3, Conc. 10 X); −122.656 in the assay with IL-6 [1] (Donor 3, Conc. 20 X); −140.851 in the assay with IL-6 [1] (Donor 3, Conc. 40 X). In addition, the “EI over vehicle control, both ½ EImax and EImax” value in assay [2] is listed as “higher than the vehicle”. Further, the “Secreted IL6 Median” value in the assay with IL-6 [3] (HLMVEC + 0.5 ng/mL TNF-α, 24 h, amino acids 20x HMDB, Nac/Cit/Car 5 mM as bracketed) is −0.497.

The values are drawn from patent US20230000808A1, “COMPOSITIONS AND METHODS EXCLUDING OR WITH REDUCED GLUTAMINE FOR THE TREATMENT OF HEMOGLOBINOPATHIES AND THALASSEMIAS” (AXCELLA HEALTH INC., priority 2019, published 2023).
